Assay results published in US20220324865A1 (Bayer Aktiengesellschaft, priority 2018, published 2022).

Target: T1, human EP3 receptor (Homo sapiens, UniProt P43115)
T1 construct: expressed in transfected cells; host or cells: CHO K1 (Chinese Hamster Ovary), stably co-transfected with Galpha16 and mitochondrial clytin
T1 sequence (P43115 1-390): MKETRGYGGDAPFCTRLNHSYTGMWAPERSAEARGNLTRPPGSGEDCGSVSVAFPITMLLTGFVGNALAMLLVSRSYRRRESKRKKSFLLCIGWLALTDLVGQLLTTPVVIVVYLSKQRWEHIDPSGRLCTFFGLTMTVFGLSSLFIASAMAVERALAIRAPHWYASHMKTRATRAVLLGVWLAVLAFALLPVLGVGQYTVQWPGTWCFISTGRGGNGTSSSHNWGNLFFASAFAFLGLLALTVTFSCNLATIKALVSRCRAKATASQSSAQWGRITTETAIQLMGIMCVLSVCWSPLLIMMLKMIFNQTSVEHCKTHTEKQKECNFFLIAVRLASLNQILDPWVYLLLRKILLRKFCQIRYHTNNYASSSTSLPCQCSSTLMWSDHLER
Experiment: Cellular in vitro assay for determining EP3 receptor activity (human EP3 cell line, sulprostone-stimulated calcium luminescence)
Type: cell-based
Conditions: CHO cells expressing human EP3 and mitochondrial Clytin; antagonist mode, sulprostone at EC50; read-out: EP3 CHO mtCLY ANTAG IC50
How it was run: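 Antagonist activity was measured as inhibition of the luminescent calcium signal elicited by EC50 sulprostone, following 10 min compound pretreatment. The cell line was recombinant CHO K1 co-expressing human EP3, Gα16 and the photoprotein Clytin, reconstituted with coelenterazine.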

First: COCc1c(C(=O)N[C@H](CCO)c2ccccc2)nn2cc(-c3ccc4ccccc4c3)[nH]c(=O)c12 [Example 1-76, N-[(1R)-3-Hydroxy-1-phenylpropyl]-3-(methoxymethyl)-6-(naphthalen-2-yl)-4-oxo-4,5-dihydropyrazolo[1,5-a]pyrazine-2-carboxamide]
Second: NC(=O)[C@H](NC(=O)c1cc2c(=O)[nH]c(-c3ccc4ccccc4c3)cn2n1)c1ccccc1 [6-84]
The IC50 of the first is 7.4-fold lower: 0.725 nM for the first, 5.4 nM for the second.

Going from `Cc1ccc(-c2cn3nc(C(=O)NCC(C)(N)C(F)(F)F)c(C(F)(F)F)c3c(=O)[nH]2)cc1Cl` (single isomer, unassigned) [6-170] to `Cc1ccc(-c2cn3nc(C(=O)N[C@@H](c4ccc(F)cc4)C(F)(F)CO)c(C(F)(F)C(F)(F)F)c3c(=O)[nH]2)cc1Cl` [6-487], the IC50 falls from 2.1 nM to 0.67 nM (3.1-fold).

Compared with `Cc1cccc2ncc(-c3cn4nc(C(=O)NC(c5cccc(F)c5)C(F)F)c(C(C)C)c4c(=O)[nH]3)cc12` (stereo not drawn) [Example 4-76, N-[2,2-Difluoro-1-(3-fluorophenyl)ethyl]-3-isopropyl-6-(5-methyl-3-quinolyl)-4-oxo-5H-pyrazolo[1,5-a]pyrazine-2-carboxamide], `Cc1cccc2ncc(-c3cn4nc(C(=O)NC(C)c5ccc6c(c5)OCCO6)c(C(C)C)c4c(=O)[nH]3)cc12` (stereo not drawn) [Example 4-57, N-[1-(2,3-Dihydro-1,4-benzodioxin-6-yl)ethyl]-3-isopropyl-6-(5-methyl-3-quinolyl)-4-oxo-5H-pyrazolo[1,5-a]pyrazine-2-carboxamide] is 1.7-fold lower in IC50: 3.15 nM for the first, 1.9 nM for the second. The second is the more potent here.

First: COc1ccc(C2(NC(=O)c3nn4cc(-c5ccc(C)c(Cl)c5)[nH]c(=O)c4c3C3CC3)CN(C)C2)cc1 [6-257]
Second: COc1cc(-c2cn3nc(C(=O)N[C@H](CCO)c4ccc(F)cc4)c(C4CC4)c3c(=O)[nH]2)ccc1Cl [6-482]
The IC50 of the first is 6.9-fold higher: 3.3 nM for the first, 0.48 nM for the second. The second is the more potent here.

Going from `CC[C@@H](COC)NC(=O)c1nn2cc(-c3ccc(Cl)c(C)c3)[nH]c(=O)c2c1C1CC1` [6-327] to `Cc1cc(-c2cn3nc(C(=O)NCC(O)C(F)(F)F)c(C4CC4)c3c(=O)[nH]2)ccc1Cl` (racemic) [6-312], the IC50 rises from 0.48 nM to 1.3 nM (2.7-fold). The first is the more potent here.

Compared with `C[C@H](NC(=O)c1cc2c(=O)[nH]c(-c3ccc4c(c3)N(C)CCO4)cn2n1)c1ccc(F)cc1` [6-83], `COc1ccc(CCNC(=O)c2cc3c(=O)[nH]c(-c4ccc5c(c4)N(C)CCO5)cn3n2)cc1OC` [6-86] is 1.8-fold lower in IC50: 3.55 nM for the first, 1.95 nM for the second.

Going from `Cc1nn(C(C)CNC(=O)c2cc3c(=O)[nH]c(-c4ccc5ccccc5c4)cn3n2)c(C)c1Cl` (stereo not drawn) [Example 2-46, N-[2-(4-Chlor-3,5-dimethyl-1H-pyrazol-1-yl)propyl]-6-(2-naphthyl)-4-oxo-4,5-dihydropyrazolo[1,5-a]pyrazine-2-carboxamide] to `CCC(CNC(=O)c1cc2c(=O)[nH]c(-c3ccc4ccccc4c3)cn2n1)n1cc(Cl)cn1` (stereo not drawn) [Example 2-10, N-[2-(4-Chlor-1H-pyrazol-1-yl)butyl]-6-(2-naphthyl)-4-oxo-4,5-dihydropyrazolo[1,5-a]pyrazine-2-carboxamide], the IC50 falls from 2.95 nM to 1.7 nM (1.7-fold).

First: C[C@@H](NC(=O)c1nn2cc(-c3ccc4ccccc4c3)[nH]c(=O)c2c1C(F)(F)F)c1ccc(F)cc1 [Example 1-53, N-[(1R)-1-(4-Fluorophenyl)ethyl]-6-(naphthalen-2-yl)-4-oxo-3-(trifluoromethyl)-4,5-dihydropyrazolo[1,5-a]pyrazine-2-carboxamide]
Second: CC(C)c1c(C(=O)N[C@@H](C)c2ccc(F)cc2)nn2cc(-c3ccc4ccccc4c3)[nH]c(=O)c12 [Example 1-9, N-[(1S)-1-(4-Fluorophenyl)ethyl]-6-(naphthalen-2-yl)-4-oxo-3-(propan-2-yl)-4,5-dihydropyrazolo-[1,5-a]pyrazine-2-carboxamide]
The IC50 of the first is 2.9-fold lower: 0.82 nM for the first, 2.37 nM for the second.

First: CCn1ccc(C(C)NC(=O)c2nn3c(C)c(-c4ccc5ccccc5c4)[nH]c(=O)c3c2C)n1 (stereo not drawn) [Example 3-4, N-[1-(1-Ethylpyrazol-3-yl)ethyl]-3,7-dimethyl-6-(2-naphthyl)-4-oxo-5H-pyrazolo[1,5-a]pyrazine-2-carboxamide]
Second: Cc1c(C(=O)NCc2cc[nH]n2)nn2c(C)c(-c3ccc4ccccc4c3)[nH]c(=O)c12 [Example 3-5, 3,7-Dimethyl-6-(naphthalen-2-yl)-4-oxo-N-[(1H-pyrazol-3-yl)methyl]-4,5-dihydropyrazolo[1,5-a]pyrazine-2-carboxamide]
The IC50 of the first is 2.7-fold lower: 2.6 nM for the first, 7 nM for the second. The first is the more potent here.

First: C[C@H](NC(=O)c1nn2cc(-c3ccc(Cl)c(F)c3)[nH]c(=O)c2c1C1CC(F)(F)C1)C1CC1 [6-556]
Second: Cc1ccc(-c2cn3nc(C(=O)N[C@@H](C)C4CC4)c(C4CC4)c3c(=O)[nH]2)cc1C [6-439]
The IC50 of the first is 2.1-fold higher: 2.15 nM for the first, 1 nM for the second. The second is the more potent here.

`Cc1ccc(-c2cn3nc(C(=O)N[C@@H](C)CO)c(C4CCC4)c3c(=O)[nH]2)cc1F` [6-576] and `Cc1ccc(-c2cn3nc(C(=O)NC(CO)C(F)(F)F)c(C4CC4)c3c(=O)[nH]2)cc1F` (racemic) [6-392] are within 1.5-fold of each other in IC50: 3.75 nM for the first, 4.4 nM for the second.

Compared with `O=C(NC(c1ccc(F)cc1)C1(O)CC1)c1nn2cc(-c3ccc(Cl)c(F)c3)[nH]c(=O)c2c1C1CC1` (single isomer, unassigned) [6-98], `Cc1cc(-c2cn3nc(C(=O)NC(CO)c4ccc(F)cc4)c(C4CC4)c3c(=O)[nH]2)ccc1C(F)(F)F` (racemic) [6-129] is 8-fold higher in IC50: 0.68 nM for the first, 5.45 nM for the second.

First: O=C(NCc1nc2ccccc2[nH]1)c1cc2c(=O)[nH]c(-c3ccc4ccccc4c3)cn2n1 [Example 2-24, N-(1H-Benzimidazol-2-ylmethyl)-6-(2-naphthyl)-4-oxo-4,5-dihydropyrazolo[1,5-a]pyrazine-2-carboxamide]
Second: COC(=O)C(NC(=O)c1cc2c(=O)[nH]c(-c3ccc4ccccc4c3)cn2n1)c1ccc(F)cc1 (stereo not drawn) [6-17]
The IC50 of the first is 1.5-fold lower: 2.45 nM for the first, 3.75 nM for the second. The first is the more potent here.

`Cc1cccc2ncc(-c3cn4nc(C(=O)Nc5ccnn5C(C)C)c(C(C)C)c4c(=O)[nH]3)cc12` [Example 4-15, 6-(5-Methylquinolin-3-yl)-4-oxo-3-(propan-2-yl)-N-[1-(propan-2-yl)-1H-pyrazol-5-yl]-4,5-dihydropyrazolo[1,5-a]pyrazine-2-carboxamide] and `Cc1cccc2ncc(-c3cn4nc(C(=O)N[C@@H](c5ccc(F)cc5)C(C)(C)O)c(C(F)(F)F)c4c(=O)[nH]3)cc12` [6-546] are within 1.5-fold of each other in IC50: 2.9 nM for the first, 3.13 nM for the second.

Going from `Cc1ccc(-c2cn3nc(C(=O)NCC(O)C(F)(F)F)c(C4CC4)c3c(=O)[nH]2)cc1C` (single isomer, unassigned) [6-436] to `COC[C@H](NC(=O)c1nn2cc(-c3ccc(C(F)(F)F)c(C)c3)[nH]c(=O)c2c1C1CC1)c1ccccc1` [6-137], the IC50 rises from 0.84 nM to 1.4 nM (1.7-fold).

First: COc1ccc(C(CCO)NC(=O)c2cc3c(=O)[nH]c(-c4ccc(C)c(C)c4)cn3n2)cc1 (racemic) [Example 1-11, rac-6-(3,4-Dimethylphenyl)-N-[3-hydroxy-1-(4-methoxyphenyl)propyl]-4-oxo-5H-pyrazolo[1,5-a]-pyrazine-2-carboxamide]
Second: Cc1ccc(-c2cn3nc(C(=O)NC(CCO)c4ccc(C(F)(F)F)cc4)cc3c(=O)[nH]2)cc1C (stereo not drawn) [Example 1-86, 6-(3,4-Dimethylphenyl)-N-[3-hydroxy-1-[4-(trifluoromethyl)phenyl]propyl]-4-oxo-5H-pyrazolo-[1,5-a]pyrazine-2-carboxamide]
The IC50 of the first is 3-fold higher: 2.15 nM for the first, 0.715 nM for the second.

For `Cc1ccc(-c2cn3nc(C(=O)N[C@@H](c4ccc(F)cc4)C(C)(C)O)c(C)c3c(=O)[nH]2)cc1Cl` [Example 1-148, 6-(3-Chloro-4-methylphenyl)-N-[(1S)-1-(4-fluorophenyl)-2-hydroxy-2-methylpropyl]-3-methyl-4-oxo-4,5-dihydropyrazolo[1,5-a]pyrazine-2-carboxamide], the IC50 was 1.33 nM.
